# Reference: ChEMBL document CHEMBL5365468, “Discovery of a novel series of medium-sized cyclic enteropeptidase inhibitors” (Bioorg Med Chem, 2023)
# What was measured:
# Enteropeptidase [1] = target: T1, Enteropeptidase (Homo sapiens, UniProt P98073); assay: Inhibition of human recombinant enteropeptidase using 5FAM-Abu-Gly-Asp-Asp-Asp-Lys-Ile-Val-Gly-Gly-Lys(CPQ2)-Lys-Lys-NH2 as substrate incubated for 120 mins by fluorescence plate reader analysis
# Enteropeptidase [2] = target: T1, Enteropeptidase; assay: Inhibition of human recombinant enteropeptidase using 5FAM-Abu-Gly-Asp-Asp-Asp-Lys-Ile-Val-Gly-Gly-Lys(CPQ2)-Lys-Lys-NH2 as substrate incubated for 6 mins by fluorescence plate reader analysis
# Enteropeptidase [3] = target: T1, Enteropeptidase; assay: Inhibition of human recombinant enteropeptidase using 5FAM-Abu-Gly-Asp-Asp-Asp-Lys-Ile-Val-Gly-Gly-Lys(CPQ2)-Lys-Lys-NH2 as substrate assessed as dissociation half life preincubated with compound for 2 hrs followed by substrate addition and measured every 2 mins by fluorescence based analysis
# [4] = Stability of the compound at pH 6.8 assessed as drug decomposition at 10 ug/ml incubated for 24 hrs by HPLC analysis; format: physicochemical; settings: buffer, at 10 µg/mL, read-out: Drug degradation
# [5] = In vivo inhibition of enteropeptidase in D12079B diet-induced obese C57BL/6J mouse model assessed as fold increase in fecal protein output at 10 mg/kg, po measured overnight relative to N-({4-[(4-carbamimidamidobenzoyl)oxy]phenyl}acetyl)-L-aspartic acid hydrochloride; format: functional
# [6] = Stability of the compound at pH 1.2 assessed as drug decomposition at 10 ug/ml incubated for 24 hrs by HPLC analysis; format: physicochemical; settings: buffer, at 10 µg/mL, read-out: Drug degradation
# [7] = Oral bioavailability in mouse assessed as ratio of dose normalized oral AUC to intravenous AUC at 10 mg/kg by LC-MS/MS analysis; format: ADME, organism-based; settings: in vivo
# [8] = Drug absorption in dog intestine assessed as fraction of drug absorbed into portal vein at 1 mg/kg, po by LC-MS/MS analysis; format: ADME, organism-based, Canis lupus familiaris; settings: in vivo
# [9] = Oral bioavailability in dog assessed as ratio of dose normalized oral AUC to intravenous AUC at 1 mg/kg by LC-MS/MS analysis; format: ADME, organism-based, Canis lupus familiaris; settings: in vivo
# [10] = Drug absorption in monkey intestine assessed as fraction of drug absorbed into portal vein at 1 mg/kg, po by LC-MS/MS analysis; format: ADME, organism-based, Macaca mulatta; settings: rhesus monkey, in vivo
# [11] = Oral bioavailability in monkey assessed as ratio of dose normalized oral AUC to intravenous AUC at 1 mg/kg by LC-MS/MS analysis; format: ADME, organism-based, Macaca mulatta; settings: rhesus monkey, in vivo
# [12] = Drug metabolism in Sprague-Dawley rat assessed as open-ring type hydrolyzed metabolite formation in plasma at 100 mg/kg, po by LC-MS/MS analysis; format: ADME, organism-based; settings: in vivo
# [13] = Inhibition of rat recombinant enteropeptidase catalytic domain (818 to 1057 residues) using 5FAM-Abu-Gly-Asp-Asp-Asp-Lys-Ile-Val-Gly-Gly-Lys(CPQ2)-Lys-Lys-NH2 as substrate incubated for 120 mins by fluorescence plate reader analysis
# [14] = Oral bioavailability in rat assessed as ratio of dose normalized oral AUC to intravenous AUC at 10 mg/kg by LC-MS/MS analysis; format: ADME, organism-based; settings: in vivo
# [15] = Drug absorption in rat intestine assessed as fraction of drug absorbed into portal vein at 10 mg/kg, po by LC-MS/MS analysis; format: ADME, organism-based; settings: in vivo
# [16] = Drug absorption in mouse intestine assessed as fraction of drug absorbed into portal vein at 10 mg/kg, po by LC-MS/MS analysis; format: ADME, organism-based; settings: in vivo
# T1 sequence (P98073 2-784 limits assumed): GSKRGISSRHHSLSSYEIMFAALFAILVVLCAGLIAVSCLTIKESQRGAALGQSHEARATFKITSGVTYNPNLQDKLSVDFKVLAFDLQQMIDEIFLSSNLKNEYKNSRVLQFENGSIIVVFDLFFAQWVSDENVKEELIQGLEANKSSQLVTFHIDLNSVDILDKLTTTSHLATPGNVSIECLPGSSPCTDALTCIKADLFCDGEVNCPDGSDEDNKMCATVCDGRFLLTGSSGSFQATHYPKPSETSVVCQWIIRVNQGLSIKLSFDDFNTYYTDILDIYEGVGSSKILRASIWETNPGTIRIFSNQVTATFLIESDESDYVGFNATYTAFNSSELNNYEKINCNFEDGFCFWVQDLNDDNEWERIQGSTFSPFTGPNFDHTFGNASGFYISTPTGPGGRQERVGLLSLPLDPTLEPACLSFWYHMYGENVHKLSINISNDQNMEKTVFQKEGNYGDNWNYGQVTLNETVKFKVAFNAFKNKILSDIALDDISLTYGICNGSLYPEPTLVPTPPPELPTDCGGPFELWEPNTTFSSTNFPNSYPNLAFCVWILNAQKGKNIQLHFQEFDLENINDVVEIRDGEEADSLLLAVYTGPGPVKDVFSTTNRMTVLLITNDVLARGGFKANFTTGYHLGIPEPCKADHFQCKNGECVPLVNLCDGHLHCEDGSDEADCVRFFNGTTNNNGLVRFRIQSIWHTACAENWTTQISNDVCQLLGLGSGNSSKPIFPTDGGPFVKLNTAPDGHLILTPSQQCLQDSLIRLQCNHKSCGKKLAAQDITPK
# T1 sequence (P98073 785-1019 limits assumed): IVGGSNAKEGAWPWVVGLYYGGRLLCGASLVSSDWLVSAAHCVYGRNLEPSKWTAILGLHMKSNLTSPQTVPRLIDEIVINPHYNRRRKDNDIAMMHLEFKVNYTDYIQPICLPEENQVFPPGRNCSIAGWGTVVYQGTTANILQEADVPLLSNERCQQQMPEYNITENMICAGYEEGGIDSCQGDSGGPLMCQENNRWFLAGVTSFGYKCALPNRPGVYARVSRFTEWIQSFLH
SMILES,IC50 (Enteropeptidase [1]),IC50 (Enteropeptidase [2]),T1/2 (Enteropeptidase [3]),fold change (FC) [5],also measured
N=C(N)Nc1ccc2c(c1)CCCc1c(cccc1C(=O)N[C@@H](CC(=O)O)C(=O)O)OC2=O,0.022 µM,0.43 µM,,,
Cc1ccc(C(=O)N[C@@H](CC(=O)O)C(=O)O)cc1OC(=O)c1ccc(NC(=N)N)cc1,0.71 µM,> 3.3 µM,,,
N=C(N)Nc1ccc2c(c1)CCCCCCc1c(cccc1C(=O)N[C@@H](CC(=O)O)C(=O)O)OC2=O,0.081 µM,2.5 µM,,,
N=C(N)Nc1ccc2c(c1)CCCCc1c(cccc1C(=O)N[C@@H](CC(=O)O)C(=O)O)OC2=O,0.0032 µM,0.093 µM,> 2 h,1.13,"degraded at 24 h, 10 ug/ml [4]: 3.4%; degraded at 24 h, 10 ug/ml [6]: 1.2%"
N=C(N)Nc1ccc2c(c1)OCCCc1c(cccc1C(=O)N[C@@H](CC(=O)O)C(=O)O)OC2=O,0.00069 µM,0.0087 µM,0.27 h,,
N=C(N)Nc1ccc2c(c1)CCCOc1c(cccc1C(=O)N[C@@H](CC(=O)O)C(=O)O)OC2=O,0.00041 µM,0.0094 µM,> 2 h,1.72,bioavailability [7]: 1.1%; FaFg [8]: 3.4%; bioavailability [9]: 2.8%; FaFg [10]: 0.3%; bioavailability [11]: 0.3%; Drug metabolism [12]: Metabolite_Detected; IC50 [13]: 0.00062 µM; bioavailability [14]: 1%; FaFg [15]: 1.2%; FaFg [16]: 1.9%

# Further compounds by falling IC50 (Enteropeptidase [1]), results first:
IC50 (Enteropeptidase [1]),IC50 (Enteropeptidase [2]),T1/2 (Enteropeptidase [3]),SMILES,fold change (FC) [5],also measured
0.0044 µM,0.069 µM,,Cc1c(OC(=O)c2ccc(NC(=N)N)cc2)cccc1C(=O)N[C@@H](CC(=O)O)C(=O)O,,
0.0029 µM,0.096 µM,> 2 h,N=C(N)Nc1ccc2c(c1)CCCCCc1c(cccc1C(=O)N[C@@H](CC(=O)O)C(=O)O)OC2=O,1.15,"degraded at 24 h, 10 ug/ml [4]: 0.6%; degraded at 24 h, 10 ug/ml [6]: 0.4%"
0.0017 µM,0.026 µM,> 2 h,N=C(N)Nc1ccc2c(c1)CCCCOc1c(cccc1C(=O)N[C@@H](CC(=O)O)C(=O)O)OC2=O,,
